Measurements: patent publication US9175299B2, “Mutation involved in increased tolerance to imidazolinone herbicides in plants” (BASF AGROCHEMICAL PRODUCTS, B.V., priority 2004, dated 2015)

Legend:
[1] = system: M3 Shiloh plants; test: Tolerance rating of M3 progeny field plots sprayed with imazamox at the three-leaf stage; type: in vivo, Triticum aestivum
Method: Samples of 1,500 Shiloh variety seeds were each placed in a 1,000 ml beaker and covered with deionized water to at least 1 inch above the seed level. The beakers were then placed in a refrigerator at 4° C. for 15-20 hours. The seed samples were removed from the refrigerator and brought up to room temperature over an approximately 3 hour period by placing the beaker at room temperature. In some cases, the warming process was accelerated by adding deionized water to the beakers.
The deionized water was drained off the seeds, and the beaker was filled with a sodium azide solution to at least 1 inch above the seed level. The sodium azide solution was prepared by adding 27.218 g KH2PO4 to 1,500 ml deionized water, bringing the solution to pH 3 with concentrated H3PO4, and bringing the final solution to 2 L volume with deionized water. Just prior to use, 0.2604 g NaN3 was added, and the solution was kept in the dark. After addition of the sodium azide solution to the seeds, the beakers were incubated in a dark area at room temperature for 2 hours, with occasional stirring.
The sodium azide treatment solution was decanted, and the seed samples were rinsed twice with deionized water. Then the seed samples were covered with deionized water to at least 1 inch above seed level and soaked at room temperature for 1 hour, with occasional stirring. The deionized water was decanted, and the seeds were spread evenly on paper towels to dry. The seeds were planted in the field near Berthoud, Colo. in six 5 feet by 40 feet plots. Approximately 15 pounds of M2 seed were harvested, and approximately 466,000 seeds were planted near Platteville, Colo. The fields were sprayed with 1× (40 g ai ha^−1 (imazamox)) or 2× (80 g ai ha^−1 (imazamox)).
Plants tolerant to the herbicide were identified and transplanted into 1 gallon pots, and put into vernalization for 4 weeks at 45° F. Fourteen single plant selections were made out of the 2× rate area. The tolerant M2 plants were taken out of vernalization, grown out in a Berthoud, Colo. greenhouse, and M3 plants were planted in approximately 4 feet by 5 feet plots near Berthoud, Colo. The plots were sprayed with 80 g ai ha^−1 (imazamox) when the plants were at the three-leaf stage, and the results of the fourteen progenies were rated as shown in Table 1.

[2] = system: Shiloh-08; test: Greenhouse screen of Shiloh-08 seedlings with imazamox at the three-leaf stage; type: in vivo, Triticum aestivum; conditions: twelve seeds, 40 g ai ha^−1 imazamox
[3] = system: iShiloh-8/iGDN F2's; test: Test cross with a known Als1 line, F2 screen for herbicide tolerance (Table 2); type: in vivo, Triticum aestivum; conditions: test cross of Table 2; herbicide not named at this place
Method: (§1) Two test-cross experiments of Shiloh-8 with a known Als1 line were performed.

[4] = system: iShiloh-8/imi GDN F2's; test: Test cross EXP 2001-2 Winter, F2 screen for herbicide tolerance (Table 3); type: in vivo, Triticum aestivum
Method: as §1

[5] = system: iShiloh-8; test: Test cross EXP 2001-2 Winter, parent check (Table 3); type: in vivo, Triticum aestivum; conditions: number of plants of 8; herbicide not given
Method: as §1

[6] = system: Shiloh; test: Test cross EXP 2001-2 Winter, wild type check (Table 3); type: in vivo, Triticum aestivum; conditions: number of plants of 7; herbicide not given
Method: as §1

[7] = system: imi GDN; test: Test cross EXP 2001-2 Winter, known Als1 line check (Table 3); type: in vivo; conditions: number of plants of 2; herbicide not given
Method: as §1

[8] = system: iSHILOH-08; test: Multiple field imidazolinone herbicide imazamox tolerance comparisons (Table 5); type: in vivo, Triticum aestivum
Method: (§2) Agronomic and comparative imidazolinone herbicide imazamox tolerance were then evaluated under field conditions. Table 4 summarizes the yield and agronomic evaluations comparing Shiloh-8 and wild type Shiloh plants. These trials were typical cereal evaluation experiments using incomplete randomized block three replication design. Plots were 1.54 m×4.62 m at harvest. Table 5 summarizes multiple field imidazolinone herbicide imazamox tolerance comparisons between Shiloh-8 and the standard tolerant control […]. These plots ranged from a single row 1 m to larger 1.54 m×4.62 m plots.

[9] = system: 9604 (iFEDEL); test: Multiple field imidazolinone herbicide imazamox tolerance comparisons (Table 5), standard tolerant control; type: in vivo, Triticum aestivum; conditions: scale 1-no effect 10-dead
Method: as §2

[10] = number of plants of 167 F2's, herbicide not given

Structure (SMILES): COCc1cnc(C2=NC(C)(C(C)C)C(=O)N2)c(C(=O)O)c1 (stereo not drawn) [imazamox]
- Tolerance of M3 Shiloh plants to 80 g ai ha^−1 (imazamox) ([1]; line Shiloh-01, 80 g ai ha^−1, three-leaf stage): Medium MR-MS
- Tolerance of M3 Shiloh plants to 80 g ai ha^−1 (imazamox) ([1]; line Shiloh-03, 80 g ai ha^−1, three-leaf stage): Discard-Sensitive
- Tolerance of M3 Shiloh plants to 80 g ai ha^−1 (imazamox) ([1]; line Shiloh-04, 80 g ai ha^−1, three-leaf stage): Discard-Sensitive
- Tolerance of M3 Shiloh plants to 80 g ai ha^−1 (imazamox) ([1]; line Shiloh-05, 80 g ai ha^−1, three-leaf stage): Discard-Sensitive
- Tolerance of M3 Shiloh plants to 80 g ai ha^−1 (imazamox) ([1]; line Shiloh-06, 80 g ai ha^−1, three-leaf stage): Discard-Sensitive
- Tolerance of M3 Shiloh plants to 80 g ai ha^−1 (imazamox) ([1]; line Shiloh-07, 80 g ai ha^−1, three-leaf stage): Discard-Sensitive
- Tolerance of M3 Shiloh plants to 80 g ai ha^−1 (imazamox) ([1]; line Shiloh-08, 80 g ai ha^−1, three-leaf stage): All Good MR-R
- Tolerance of M3 Shiloh plants to 80 g ai ha^−1 (imazamox) ([1]; line Shiloh-09, 80 g ai ha^−1, three-leaf stage): Discard-Sensitive
- Tolerance of M3 Shiloh plants to 80 g ai ha^−1 (imazamox) ([1]; line Shiloh-10, 80 g ai ha^−1, three-leaf stage): Discard-Sensitive
- Tolerance of M3 Shiloh plants to 80 g ai ha^−1 (imazamox) ([1]; line Shiloh-11, 80 g ai ha^−1, three-leaf stage): Discard-Sensitive
- Tolerance of M3 Shiloh plants to 80 g ai ha^−1 (imazamox) ([1]; line Shiloh-12, 80 g ai ha^−1, three-leaf stage): Discard-Sensitive
- Tolerance of M3 Shiloh plants to 80 g ai ha^−1 (imazamox) ([1]; line Shiloh-13, 80 g ai ha^−1, three-leaf stage): Discard-Sensitive
- Tolerance of M3 Shiloh plants to 80 g ai ha^−1 (imazamox) ([1]; line Shiloh-14, 80 g ai ha^−1, three-leaf stage): Medium MR-MS
- Reaction of Shiloh-08 plants to imazamox screen [2]: confirmed a heritable homozygous reaction
- Genetic segregation for tolerance in the F2 population [3]: no genetic segregation for tolerance
- DGP+ Brown sheath [4, 10]: 0
- Dead or Dying growth point [4, 10]: 0
- Strong Survivors [4, 10]: 140
- Winkled or stunted [4, 10]: 27
- Genetic segregation for tolerance in the F2 population ([4]; test cross of Table 3, herbicide not named at this place): no genetic segregation for tolerance
- DGP+ Brown sheath [5]: 0
- Dead or Dying growth point [5]: 0
- Strong Survivors [5]: 7
- Winkled or stunted [5]: 1
- DGP+ Brown sheath [6]: 7
- Dead or Dying growth point [6]: 0
- Strong Survivors [6]: 0
- Winkled or stunted [6]: 0
- DGP+ Brown sheath [7]: 0
- Dead or Dying growth point [7]: 0
- Strong Survivors [7]: 1
- Winkled or stunted [7]: 1
- ′99-′00 Rate D&O Plateville, CO (early) 4 oz/ac ([8]; 4 oz/ac, early, scale 1-no effect 10-dead): 2
- ′99-′00 Rate D&O Quinter, KS (early) 4 oz/ac ([8]; 4 oz/ac, early, scale 1-no effect 10-dead, spring application, temperature dropped 19° F. the night following application): 2
- ′99-′00 Rate D&O Quinter, KS (late) 4 oz/ac ([8]; 4 oz/ac, late, scale 1-no effect 10-dead, spring application, temperature dropped 19° F. the night following application): 5
- ′99-′00 Rate D&O Plateville, CO (early) 8 oz/ac ([8]; 8 oz/ac, early, scale 1-no effect 10-dead): 3
- ′99-′00 Rate D&O Quinter, KS (early) 8 oz/ac ([8]; 8 oz/ac, early, scale 1-no effect 10-dead, spring application, temperature dropped 19° F. the night following application): 3
- ′99-′00 Rate D&O Quinter, KS (late) 8 oz/ac ([8]; 8 oz/ac, late, scale 1-no effect 10-dead, spring application, temperature dropped 19° F. the night following application): 6
- Sum ′99 M3 Progeny Rating (8 oz/ac) Field ([8]; 8 oz/ac, field): R-MR
- ′99-′00 Rate D&O Plateville, CO (early) 4 oz/ac ([9]; 4 oz/ac, early): 1
- ′99-′00 Rate D&O Quinter, KS (early) 4 oz/ac ([9]; 4 oz/ac, early, spring application, temperature dropped 19° F. the night following application): 1
- ′99-′00 Rate D&O Quinter, KS (late) 4 oz/ac ([9]; 4 oz/ac, late, spring application, temperature dropped 19° F. the night following application): 8
- ′99-′00 Rate D&O Plateville, CO (early) 8 oz/ac ([9]; 8 oz/ac, early): 2
- ′99-′00 Rate D&O Quinter, KS (early) 8 oz/ac ([9]; 8 oz/ac, early, spring application, temperature dropped 19° F. the night following application): 2
- ′99-′00 Rate D&O Quinter, KS (late) 8 oz/ac ([9]; 8 oz/ac, late, spring application, temperature dropped 19° F. the night following application): 8
